From article PMC4933562, “Bile salt receptor complex activates a pathogenic type III secretion system” (eLife, 2016)

Key:
VtrC (VPA1333) = target: T1, VtrC (VPA1333) (Vibrio parahaemolyticus, UniProt Q87GI3+Q87GI4); experiment: ITC (n = […]) and […] Å co-crystal structure; format: binding
T1 construct: periplasmic domains: VtrC aa 31–161 (N-terminal His-tagged) co-expressed with VtrA aa 161–253; with VtrA (VPA1332), periplasmic domain aa 161–253, obligate 1:1 heterodimer

[1] = target: N-terminal His-tagged VtrC periplasmic domain (aa 31-161) (Vibrio parahaemolyticus); experiment: SEC

C[C@H](CCC(=O)NCCS(=O)(=O)O)[C@H]1CC[C@H]2[C@@H]3CC[C@@H]4C[C@H](O)CC[C@]4(C)[C@H]3C[C@H](O)[C@]12C [TDC, taurodeoxycholate]
Kd (VtrC (VPA1333)): 315 nM

VtrA periplasmic domain (aa 161-253), co-expressed with VtrC (domain or fragment)
stoichiometry N (VtrA per VtrC) [1]: 1
